Values quoted from earlier work in patent publication US9555003B2, “Oral solid formulation of compound anti-tubercular drug and preparation method thereof” (priority 2011, dated 2017).
≈ marks a conversion by molar mass, not a printed value.

Key:
[1] = not given; remark: listed apart in the source

SMILES	solubility in water	solubility in ethanol	solubility in ethyl ether	Vd ([1]; in vivo)	protein binding rate ([1]; in vivo)	oral absorption rate ([1]; oral)	time to peak serum drug concentration after administration ([1]; oral)	intra-cellular concentration for inhibiting tubercle bacillus relative to extracellular concentration (tubercle bacillus; folds lower than the extracellular concentration)	concentration at which tubercle bacillus is eliminated (tubercle bacillus; tubercle bacillus)	minimum inhibitory concentration (tubercle bacillus; tubercle bacillus)
CC[C@H](CO)NCCN[C@H](CC)CO.Cl.Cl [Ethambutol hydrochloride]	easily soluble									
NNC(=O)c1ccncc1 [Isoniazid, 4-pyridylcarbonylhydrazine]	easily soluble	slightly soluble	very slightly soluble	0.61 ± 0.11 L/kg	very low	90%	1 to 2 h			
NC(=O)c1cnccn1 [Pyrazinamide]	slightly soluble	slightly soluble	very slightly soluble					10 folds	50 µg/mL	12.5 µg/mL (≈ 102 µM)
CO[C@H]1/C=C/O[C@@]2(C)Oc3c(C)c(O)c4c(O)c(c(/C=N/N5CCN(C)CC5)c(O)c4c3C2=O)NC(=O)/C(C)=C\C=C\[C@H](C)[C@H](O)[C@@H](C)[C@@H](O)[C@@H](C)[C@H](OC(C)=O)[C@@H]1C [Rifampicin]	poorly soluble									
